Experiment: Breast milk and plasma amino acid levels and tolerability after oral tyrosine or tryptophan
Conditions: for amount of free amino acid in breast milk: after oral supplementation
Method: Many amino acids and most medications freely cross into breast milk. […] The reason is that approximately 98% of tryptophan in breast milk is contained in proteins and peptides and that 99% of tyrosine in breast milk is contained in proteins and peptides. Different supplementation doses of oral tyrosine (0 g (none), 2, 5 or 10 grams) (n=6 each) or oral tryptophan (0 g (none), 2 or 4 grams) (n=6 each) were evaluated for resulting levels in breast milk.

| SMILES | amount of free amino acid in breast milk | total tryptophan levels in breast milk (oral tryptophan 2 or 4 grams, n=6 each) | adverse effect (tryptophan 4 gram level) | total tryptophan in breast milk (tryptophan 4 gram level) | level in maternal plasma (tryptophan dose of 2 grams) | tolerability (tryptophan dose of 2 grams) | total tryptophan levels in breast milk (tryptophan dose of 2 grams) | total tyrosine levels in breast milk (oral tyrosine 2, 5 or 10 grams, n=6 each) | level in maternal plasma (tyrosine dose of 10 grams) | tolerability (tyrosine dose of 10 grams) | total tyrosine levels in breast milk (tyrosine dose of 10 grams) |
| --- | --- | --- | --- | --- | --- | --- | --- | --- | --- | --- | --- |
| N[C@@H](Cc1c[nH]c2ccccc12)C(=O)O [tryptophan, L-tryptophan] | did increase | no change | nausea | did not increase | significantly increased | extremely well tolerated | did not have any effects |  |  |  |  |
| N[C@@H](Cc1ccc(O)cc1)C(=O)O [tyrosine, L-tyrosine] | did increase |  |  |  |  |  |  | no change | significantly increased | extremely well tolerated | did not significantly impact |

Source: patent US20230285489A1, “METHODS, COMPOSITIONS, AND KITS ADDRESSING DEPRESSED MOOD” (Centre for Addiction and Mental Health, priority 2014, published 2023)
